The numbers were not newly measured in patent publication US12247053B2 (priority 2018, dated 2025), which cites them from elsewhere.

The data set relates to 2009 swine flu influenza A(H1N1).

For `CC(N)C12CC3CC(CC(C3)C1)C2` (stereo not shown) [rimantadine], the “susceptibility of the virus” value is “resistant”.
For `CC(=O)N[C@H]1[C@H]([C@H](O)[C@H](O)CO)OC(C(=O)O)=C[C@@H]1N=C(N)N` [zanamivir], the “susceptibility of the virus” value is “susceptible”.
For `NC12CC3CC(CC(C3)C1)C2` [amantadine], the “susceptibility of the virus” value is on record as “resistant”.
Consider `CCOC(=O)C1=C[C@@H](OC(CC)CC)[C@H](NC(C)=O)[C@@H](N)C1` [oseltamivir], for which the “susceptibility of the virus” value is “susceptible”.
